Measurements published in US20070166367A1, “Adept or gdept producing acetaldehyde” (priority 2004, published 2007).

Tests used:
[1] = molecular target: T1, aldehyde dehydrogenase 1 (ALDH1) (Homo sapiens, UniProt P00352); settings: cited from earlier work
T1 sequence (P00352 1-501): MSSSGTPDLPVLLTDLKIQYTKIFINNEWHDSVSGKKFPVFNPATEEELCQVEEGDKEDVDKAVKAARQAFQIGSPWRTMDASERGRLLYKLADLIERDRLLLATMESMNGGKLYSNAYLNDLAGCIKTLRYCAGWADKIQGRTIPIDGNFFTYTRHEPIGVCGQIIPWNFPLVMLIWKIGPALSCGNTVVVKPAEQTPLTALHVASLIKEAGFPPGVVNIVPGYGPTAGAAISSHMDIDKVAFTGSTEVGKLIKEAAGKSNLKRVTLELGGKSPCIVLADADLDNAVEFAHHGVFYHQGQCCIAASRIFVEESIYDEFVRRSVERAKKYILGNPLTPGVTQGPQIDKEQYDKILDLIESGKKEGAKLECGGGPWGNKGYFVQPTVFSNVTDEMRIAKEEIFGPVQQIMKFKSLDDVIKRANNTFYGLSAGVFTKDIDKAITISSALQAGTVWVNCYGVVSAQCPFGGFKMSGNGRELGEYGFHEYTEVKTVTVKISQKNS

[2] = test system: CMT-64; assay: in vitro acetaldehyde and cisplatin toxicity assay; type: cell-based
Method: (§1) Standard tissue culture techniques were used to maintain Hela, Daudi, Jurkat, CMT-64 cells in flasks in DMEM+10% FCS in a 37° C. incubator.
(§2) Cell lines subcloned into 25-cm^2 flasks and incubated in media containing dilutions of acetaldehyde, cisplatin or both. Flasks remained sealed during incubation and the media and acetaldehyde/cisplatin were replaced daily. Viable cell counts were made using Trypan blue exclusion and a standard haemocytometer.

[3] = in vitro acetaldehyde and cisplatin toxicity assay; type: cell-based; settings: human, Daudi cells; higher concentrations (500 uM and 1 mM), day 3, FIG. 1; read-out: viable cell numbers as % of starting number
Method: as §1, §2

[4] = test system: Daudi; assay: in vitro acetaldehyde and cisplatin toxicity assay; type: cell-based
Method: as §1, §2

In the case of `CC=O` [acetaldehyde], the Km [1] is listed as 22 µM, the “concentrations at which significant growth inhibition occurred” value [2] is listed as “over 500 uM” and the effect on proliferation ([2]; 250 uM acetaldehyde) is listed as “reduction in the rate of proliferation”. The “cell number as % of starting number” value ([2]; FIG. 2) was 170%, the viability at 3 days [3] was 37% and the effect on proliferation ([4]; 250 uM acetaldehyde) was “reduction in the rate of proliferation”. The “cell number as % of starting number” value ([4]; higher cell density, 3 days exposure, FIG. 2) was 67%.
